From patent US9682991B2, “Tricyclic compounds for use as kinase inhibitors” (FUNDACIÓN CENTRO NACIONAL DE INVESTIGACIONES ONCOLOGICAS …, priority 2009, dated 2017)
Read-outs that look alike come from different tables or passages of the source.

Assays:
[1] = biological target: PIM-2 (Homo sapiens (Human), UniProt Q9P1W9); test: PIM-2 biochemical assay (ADP Hunter); conditions: semi-quantitative; read-out: PIM2 IC50
Source text: The biochemical assay to measure PIM-2 activity relies on the ADP Hunter assay kit (DiscoveRx Corp., Cat. #90-0077), that determines the amount of ADP as direct product of the kinase enzyme activity.

[2] = biological target: PIM-1 (Homo sapiens (Human), UniProt P11309); test: PIM-1 biochemical assay (ADP Hunter)
[3] = biological target: PIM-3 (Homo sapiens (Human), UniProt Q86V86); test: PIM-3 biochemical assay (ADP Hunter); conditions: semi-quantitative; read-out: PIM3 IC50
[4] = system: Bad S112 phosphorylation in H1299 cells overexpressing Pim1 (H1299Pim1); test: Bad S112 phosphorylation inhibition assay (In Cell ELISA); assay type: cell-based; conditions: read-out: EC50 BadP ELISA H1299 Pim1
Protocol: Efficacy of compounds of the invention on the inhibition of Bad phosphorylation was measured by an In Cell ELISA. EC50 values were established for the tested compounds.
Cells: H1299 cells overexpressing Pim1 (H1299Pim1)
Cells were seeded in 15000 cells per 200 μl per well into 96-well plates and incubated for 16 h at 37° C., 5% CO2. On day two, nine serial 1:2 compound dilutions were made in DMSO in a 96-well plate. The compounds were added to duplicate wells in 96-well cell plates using a FX BECKMAN robot (Beckman Coulter) and incubated at 37° C. with CO2 atmosphere. After 4 hours, relative levels of Bad S112 phosphorylation were measured in Cell ELISA using SuperSignal ELISA Femto substrate (Pierce) and read on VICTOR (Perkin Elmer). EC50 values were calculated using ActivityBase from IDBS.

[5] = read-out: PIM1 IC50, semi-quantitative
[6] = Homo sapiens, NCI-H1299, semi-quantitative

PIM-2, sequence (Q9P1W9 whole entry): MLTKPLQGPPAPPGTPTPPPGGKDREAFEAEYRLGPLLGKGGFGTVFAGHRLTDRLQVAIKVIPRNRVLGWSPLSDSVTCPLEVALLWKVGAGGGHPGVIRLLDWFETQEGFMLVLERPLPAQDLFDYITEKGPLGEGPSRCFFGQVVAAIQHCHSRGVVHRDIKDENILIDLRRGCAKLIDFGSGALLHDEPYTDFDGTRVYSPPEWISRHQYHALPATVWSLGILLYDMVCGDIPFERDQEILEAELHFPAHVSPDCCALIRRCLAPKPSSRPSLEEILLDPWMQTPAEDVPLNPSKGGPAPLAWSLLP
PIM-1, sequence (P11309 whole entry): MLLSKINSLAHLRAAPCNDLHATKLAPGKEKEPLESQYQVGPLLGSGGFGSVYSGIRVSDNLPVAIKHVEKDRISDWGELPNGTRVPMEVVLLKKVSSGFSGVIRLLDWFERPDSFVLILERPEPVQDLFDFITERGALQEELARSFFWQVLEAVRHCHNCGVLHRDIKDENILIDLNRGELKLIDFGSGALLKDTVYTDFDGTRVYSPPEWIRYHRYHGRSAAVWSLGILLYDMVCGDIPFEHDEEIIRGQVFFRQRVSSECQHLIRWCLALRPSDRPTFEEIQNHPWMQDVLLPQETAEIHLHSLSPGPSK

Row | SMILES | IC50 [1] | IC50 [2, 5] | IC50 [3] | EC50 [4, 6] | IC50 [2] | IC50 ([2]; read-out: PIM1 IC50) | EC50 ([4]; semi-quantitative)
1 | CN1CCC(Nc2nn3c(-c4cccc(OC(F)(F)F)c4)nnc3c3c2N(C)CCO3)CC1 [Example 2, (1-Methyl-piperidin-4-yl)-[6-methyl-3-(3-trifluoromethoxy-phenyl)-7,8-dihydro-6H-9-oxa-1,2,3a,4,6-pentaaza-cyclopenta[a]naphthalen-5-yl]-amine] | 0.1 to 1 µM | < 0.1 µM | 0.1 to 1 µM | 0.25 to 1 µM |  |  | 
2 | CN1CCOc2c1c(N1CCC(N(C)C)CC1)nn1c(-c3cccc(OC(F)(F)F)c3)nnc21 [Example 5, Dimethyl-{1-[6-methyl-3-(3-trifluoromethoxy-phenyl)-7,8-dihydro-6H-9-oxa-1,2,3a,4,6-pentaaza-cyclopenta[a]naphthalen-5-yl]-piperidin-4-yl}-amine] | 0.1 to 1 µM |  | 0.1 to 1 µM | 0.25 to 1 µM | < 0.1 µM |  | 
3 | CN1CCOc2c1c(NCC1CC1)nn1c(-c3cccc(OC(F)(F)F)c3)nnc21 [Example 7, Cyclopropylmethyl-[6-methyl-3-(3-trifluoromethoxy-phenyl)-7,8-dihydro-6H-9-oxa-1,2,3a,4,6-pentaaza-cyclopenta[a]naphthalen-5-yl]-amine] | 0.1 to 1 µM |  | < 0.1 µM | 1 to 10 µM | < 0.1 µM | 0.0252 µM | 
4 | CN1CCOc2c1c(NCc1ccc(F)cc1)nn1c(-c3cccc(OC(F)(F)F)c3)nnc21 [Example 9, (4-Fluoro-benzyl)-[6-methyl-3-(3-trifluoromethoxy-phenyl)-7,8-dihydro-6H-9-oxa-1,2,3a,4,6-pentaaza-cyclopenta[a]naphthalen-5-yl]-amine] | > 1 µM |  |  | 1 to 10 µM | < 0.1 µM | 0.0524 µM | 
5 | CCN1CCOc2c1c(NCC1CCN(C)CC1)nn1c(-c3cccc(OC(F)(F)F)c3)nnc21 [Example 12, [6-Ethyl-3-(3-trifluoromethoxy-phenyl)-7,8-dihydro-6H-9-oxa-1,2,3a,4,6-pentaaza-cyclopenta[a]naphthalen-5-yl]-(1-methyl-piperidin-4-ylmethyl)-amine] |  | < 0.1 µM |  | < 0.25 µM |  |  | 
6 | CN1CCC(CNc2nn3c(-c4cccc(OC(F)(F)F)c4)nnc3c3c2OCCN3C)CC1 [Example 17, (1-Methyl-piperidin-4-ylmethyl)-[9-methyl-3-(3-trifluoromethoxy-phenyl)-8,9-dihydro-7H-6-oxa-1,2,3a,4,9-pentaaza-cyclopenta[a]naphthalen-5-yl]-amine] | > 1 µM | < 0.1 µM | 0.1 to 1 µM | 1 to 10 µM |  |  | 
7 | CN1CCOc2c(N[C@H]3CC[C@H](O)CC3)nn3c(-c4cccc(OC(F)(F)F)c4)nnc3c21 [Example 20, 4-[9-Methyl-3-(3-trifluoromethoxy-phenyl)-8,9-dihydro-7H-6-oxa-1,2,3a,4,9-pentaaza-cyclopenta[a]naphthalen-5-ylamino]-cyclohexanol] | > 1 µM |  | 0.1 to 1 µM | 0.25 to 1 µM | 0.1 to 1 µM |  | 
8 | CN1CCOc2c1c(NCCN1CCOCC1)nn1c(-c3cccc(OC(F)(F)F)c3)nnc21 [Example 29, [6-Methyl-3-(3-trifluoromethoxy-phenyl)-5,6,7,8-tetrahydro-9-oxa-1,2,3a,4,6-pentaaza-cyclopenta[a]naphthalen-5-yl]-(2-morpholin-4-yl-ethyl)-amine] | 0.1 to 1 µM |  | 0.1 to 1 µM | < 0.25 µM |  |  | 
9 | CN1CCC(CNc2nn3c(-c4cccc(C#N)c4)nnc3c3c2N(C)CCO3)CC1 [Example 31, 3-{6-Methyl-5-[(1-methyl-piperidin-4-ylmethyl)-amino]-7,8-dihydro-6H-9-oxa-1,2,3a,4,6-pentaaza-cyclopenta[a]naphthalen-3-yl}-benzonitrile] | > 1 µM |  | 0.1 to 1 µM | 1 to 10 µM | 0.1 to 1 µM |  | 
10 | CN1CCC(CNc2nn3c(-c4cccc(N(C)C)c4)nnc3c3c2N(C)CCO3)CC1 [Example 34, [3-(3-Dimethylamino-phenyl)-6-methyl-7,8-dihydro-6H-9-oxa-1,2,3a,4,6-pentaaza-cyclopenta[a]naphthalen-5-yl]-(1-methyl-piperidin-4-ylmethyl)-amine] | > 1 µM | < 0.1 µM | 0.1 to 1 µM | 1 to 10 µM |  |  | 
11 | CN1CCC(CNc2nn3c(-c4cccc(OC(F)(F)F)c4)nnc3c3c2CCCC3)CC1 [Example 37, (1-Methyl-piperidin-4-ylmethyl)-[3-(3-trifluoromethoxy-phenyl)-7,8,9,10-tetrahydro-[1,2,4]triazolo[3,4-a]phthalazin-6-yl]-amine] |  |  |  | 1 to 10 µM |  |  | 
12 | CC1CN(C)c2c(NCC3CCN(C)CC3)nn3c(-c4cccc(OC(F)(F)F)c4)nnc3c2O1 (centres unmarked) [Example 40, [6,8-Dimethyl-3-(3-trifluoromethoxy-phenyl)-7,8-dihydro-6H-9-oxa-1,2,3a,4,6-pentaaza-cyclopenta[a]naphthalen-5-yl]-(1-methyl-piperidin-4-ylmethyl)-amine] | 0.1 to 1 µM | < 0.1 µM | < 0.1 µM | 0.25 to 1 µM |  |  | 
13 | CN1CCOc2c1c(NC1CC3(CCNCC3)C1)nn1c(-c3cccc(OC(F)(F)F)c3)nnc21 [Example 49, (7-Aza-spiro[3.5]non-2-yl)-[6-methyl-3-(3-trifluoromethoxy-phenyl)-7,8-dihydro-6H-9-oxa-1,2,3a,4,6-pentaaza-cyclopenta[a]naphthalen-5-yl]-amine] |  | < 0.1 µM |  | 0.25 to 1 µM |  |  | 
14 | COc1ccc(-c2nnc3c4c(c(N5CCC(CN)CC5)nn23)N(C)CCO4)cc1 [Example 52, C-{1-[3-(4-Methoxy-phenyl)-6-methyl-7,8-dihydro-6H-9-oxa-1,2,3a,4,6-pentaaza-cyclopenta[a]naphthalen-5-yl]-piperidin-4-yl}-methylamine] | > 1 µM | 0.1 to 1 µM | > 1 µM |  |  |  | 1 to 10 µM
15 | CN1CCOc2c1c(NCC13CCN(CC1)C3)nn1c(-c3cccc(OC(F)(F)F)c3)nnc21 [Example 54, (1-Aza-bicyclo[2.2.1]hept-4-ylmethyl)-[6-methyl-3-(3-trifluoromethoxy-phenyl)-7,8-dihydro-6H-9-oxa-1,2,3a,4,6-pentaaza-cyclopenta[a]naphthalen-5-yl]-amine] |  |  |  | 0.25 to 1 µM |  |  | 
16 | CN1CCOc2c1c(NCC1CC3(CCNCC3)C1)nn1c(-c3cccc(OC(F)(F)F)c3)nnc21 [Example 59] |  |  |  | 0.25 to 1 µM |  |  | 
17 | CN1CCOc2c1c(N1CCCC3(CCCN3)CC1)nn1c(-c3cccc(OC(F)(F)F)c3)nnc21 (centres unmarked) [Example 60, 5-(1,8-Diaza-spiro[4.6]undec-8-yl)-6-methyl-3-(3-trifluoromethoxy-phenyl)-7,8-dihydro-6H-9-oxa-1,2,3a,4,6-pentaaza-cyclopenta[a]naphthalene] | 0.1 to 1 µM | < 0.1 µM |  | < 0.25 µM |  |  | 
18 | CN1CCOc2c(NC3CC4(CCNCC4)C3)nn3c(-c4cccc(OC(F)(F)F)c4)nnc3c21 [Example 65, (7-Aza-spiro[3.5]non-2-yl)-[9-methyl-3-(3-trifluoromethoxy-phenyl)-8,9-dihydro-7H-6-oxa-1,2,3a,4,9-pentaaza-cyclopenta[a]naphthalen-5-yl]-amine] |  | < 0.1 µM | 0.1 to 1 µM | 1 to 10 µM |  |  | 
19 | CN1CCOc2c1c(N1CC3(CCCNC3)C1)nn1c(-c3cccc(OC(F)(F)F)c3)nnc21 [Example 69, 5-(2,6-Diaza-spiro[3.5]non-2-yl)-6-methyl-3-(3-trifluoromethoxy-phenyl)-7,8-dihydro-6H-9-oxa-1,2,3a,4,6-pentaaza-cyclopenta[a]naphthalene] | 0.1 to 1 µM | < 0.1 µM |  | < 0.25 µM |  |  | 
20 | CCN1CCC(CNc2nn3c(-c4cccc(OC(F)(F)F)c4)nnc3c3c2N(C)CCO3)CC1 [Example 91, (1-Ethyl-piperidin-4-ylmethyl)-[6-methyl-3-(3-trifluoromethoxy-phenyl)-7,8-dihydro-6H-9-oxa-1,2,3a,4,6-pentaaza-cyclopenta[a]naphthalen-5-yl]-amine] |  |  |  | 0.25 to 1 µM |  |  | 
21 | CN1CCOc2c1c(N(C)C1CCOCC1)nn1c(-c3cccc(OC(F)(F)F)c3)nnc21 [Example 97, Methyl-[6-methyl-3-(3-trifluoromethoxy-phenyl)-7,8-dihydro-6H-9-oxa-1,2,3a,4,6-pentaaza-cyclopenta[a]naphthalen-5-yl]-(tetrahydro-pyran-4-yl)-amine] | 0.1 to 1 µM | < 0.1 µM | < 0.1 µM |  |  |  | 
22 | CN(CCN1CCOCC1)c1nn2c(-c3cccc(OC(F)(F)F)c3)nnc2c2c1N(C)CCO2 [Example 98, Methyl-[6-methyl-3-(3-trifluoromethoxy-phenyl)-7,8-dihydro-6H-9-oxa-1,2,3a,4,6-pentaaza-cyclopenta[a]naphthalen-5-yl]-(2-morpholin-4-yl-ethyl)-amine] | 0.1 to 1 µM | < 0.1 µM | 0.1 to 1 µM |  |  |  | 
23 | CN1CCC(CNc2nn3c(-c4ccc(F)cc4)nnc3c3c2N(C)CCO3)CC1 [Example 100, [3-(4-Fluoro-phenyl)-6-methyl-7,8-dihydro-6H-9-oxa-1,2,3a,4,6-pentaaza-cyclopenta[a]naphthalen-5-yl]-(1-methyl-piperidin-4-ylmethyl)-amine] | > 1 µM |  |  | 1 to 10 µM | 0.1 to 1 µM | 0.181 µM | 
